The text below walks through data of BindingDB's records for doi:10.1021/acsmedchemlett.0c00586 (University of Iowa, 2021).

The term pEC50 denotes the negative decadic logarithm of the EC50, by convention in mol/L.

pEC50: −log10 of the molar value.

The assay in a line: Binding affinity to BTN3A1 in human PBMC-derived Vgamma9/Vdelta2 T cells assessed as induction of Vgamma9Vdelta2 T cells proliferation incubated for 3 days by gamma delta TCR/PE-CD3+ antibody staining based FACS analysis. In general terms: A flow cytometer gives signals particle by particle.

As for `C/C(=C\CCP(=O)(OCOC(=O)C(C)(C)C)Oc1ccc2ccc(=O)oc2c1)CO` (stereo not given), the negative logarithm of the EC50 (pEC50) is 8.10.
For `COC(=O)CNP(=O)(CC/C=C(\C)C=O)Oc1ccccc1` (stereo not given) the value was 7.33; for `CCOC(=O)CNP(=O)(CC/C=C(\C)C=O)Oc1ccccc1` (stereo not given), 7.70.
For `CCOC(=O)CNP(=O)(CCC=C(C)C)Oc1cccc2ccccc12` (stereo not given) the value was < 4.00.
With `C/C(C=O)=C\CCP(=O)(OCOC(=O)C(C)(C)C)Oc1ccc2ccc(=O)oc2c1` (stereo not given) the figure was 7.92.
As to `C/C(C=O)=C\CCP(=O)(OCOC(=O)C(C)(C)C)Oc1ccc2ccccc2c1` (stereo not given), the pEC50 was 8.34.
Take `C/C(C=O)=C\CCP(=O)(OCOC(=O)C(C)(C)C)OCOC(=O)C(C)(C)C`: the pEC50 is 7.33.
For `CC(C)=CCCP(=O)(O)O` the value was < 4.00.
`C/C(C=O)=C\CCP(=O)(NCC(=O)OC(C)C)Oc1ccccc1` (stereo not given): the pEC50 was 7.31.
For `CCOC(=O)CNP(=O)(CC/C=C(C)/C=N/O)Oc1ccccc1` (stereo not given) the value was 6.10.
